Among the data in patent US12622917B2, “High-activity Wnt pathway inhibitor compound” (ADLAI NORTYE BIOPHARMA CO., LTD., priority 2020, dated 2026) are IC50 values, retold here.

Holding throughout (format): cell-based
The subject of one assay is Colo205. The assay can be described thus: Proliferation inhibition, Wnt mutant cell line Colo205. Conditions: Homo sapiens, COLO 205; Colo205, Wnt pathway-dependent, 96 hours; read-out: Antiproliferative IC50 Colo205. The text has this:
(§1) The cell lines used in the experiment are Colo205 and DU4475 cell lines whose Wnt pathway is continuously activated and whose proliferation is Wnt pathway-dependent; while the BELA and RKO cell lines, whose Wnt pathway is not activated under normal circumstances and the proliferation is independent of Wnt pathway, as control cell lines. It is Judged that the inhibitory effect of the compound of the present invention on Wnt-dependent proliferation is not caused by other non-specific toxicity.
(§2) Treat the Colo205, Du4475, HELA and RKO cell lines cultured in their respective mediums in the logarithmic growth phase, collect the cells and prepare a uniform cell suspension of known concentration, and then add it to the 96-well cell culture plate Cell suspension, so that each well contains 1000 cells. Put it into a 5% CO2 incubator and incubate at 37° C. for 20-24 h. On the second day, the fully dissolved, 3-fold serially diluted compound was added to each cell culture well, so that the final maximum concentration in the cell culture well was 20 uM, and the culture was continued for 96 hours. In this test, Promega's cell viability detection test is used for detection. The more the cells proliferate, the stronger the final signal intensity will be. The detection instrument is SpectraMax, full wavelength mode. The wells only added with DMSO were used as positive control wells, and the wells that were not inoculated with cells were used as negative control wells. […] The IC50 value of cell proliferation inhibition was used to evaluate the inhibitory effect of the compound on the Wnt pathway and the toxic effect on normal cells (Table 2).

The test system of a further assay is RKO. Kind of assay: Proliferation inhibition, non-Wnt mutant control cell line RKO. Conditions: Homo sapiens, Wnt-independent control cell line, 96 hours, read-out: Antiproliferative IC50 RKO.
Description: as §1, §2

Assay [1] concerns Colo205-LUC-TCF/LEF M1 reporter cell line (Wnt pathway). Kind of assay: Colo205-LUC-TCF/LEF M1 reporter gene (luciferase) inhibition. Particulars: 4 hours incubation, luciferase readout. The text has this:
Colo205 cell line (Cell Bank of Chinese Academy of Sciences, Cat #TCHu102) was purchased from the Cell Bank of Chinese Academy of Sciences. After expansion and subculture, in the exponential growth phase of the cells, transfection with lipo3000 liposome transfection with TCF/LEF transcription factors Driven luciferase reporter plasmid (Promega). […] The plasmid carries a resistance gene for resistance screening. Transfection was carried out in 10 cm culture dishes using conventional complete medium without resistance. After 2 days, the medium with resistance was replaced, and the culture was continued. After that, the resistant medium was replaced every 2 days, and the suspended cells were discarded. The original medium was centrifuged to remove cells and debris and retained as an adaptive medium. When the cells covered the culture dish, the cells were digested, counted, and passaged in a 96-well plate, so that the average number of cells contained in each well was 1.5/well, and the adaptive medium was used for passage. The rest of the cells were frozen. After subculture, culture for 4 hours to allow the cells to adhere to the wall, and then observe the number of cells in each well under a microscope. Wells with only 1 cell per well were labeled as monoclonal wells. Afterwards, normal culture was performed, and the culture medium was replaced every 2 days, and observed. There are holes where the monoclonal cells continue to grow in the early stage, and they are labeled twice, and can be replaced with normal resistant medium. When a monoclonal well was overgrown with a 96-well plate, it is digested and passaged to a 24-well culture plate. After the 24-well plate is overgrown, it is passaged to a 96-well plate and a 6-well plate. The cells in a 96-well plate are at least 6 wells, of which 3 wells were added with known Wnt inhibitors, and the other 3 wells were not treated. After 24 hours, the cells in the 96-well plate were added with a fluorescence detection reagent to detect the fluorescence intensity. Cell lines with fluorescent expression when not treated and decreased fluorescent light after inhibition were selected and further cultured. The Colo205-LUC-TCF/LEF-M1 cell line is one of the cell lines screened above. Its growth curve, cell shape, and cell growth state are similar to those of the original Colo205 cells, and the ratio of the fluorescent signals of the inhibitor-treated and untreated cells is the largest among all cell lines, and the ratio can reach 4-5 times when inhibited at 4 hours, which was completely suitable for the screening of Wnt inhibitors in the later stage.
The Colo205-LUC-TCF/LEF M1 cell line is a reporter tool cell stably transfected with the pGL4.49-LUC2-TCF/LEF vector. The β-catenin Wnt pathway is continuously activated. After adding the inhibitor, the Wnt pathway is inhibited. The expression of firefly luciferase regulated by the[…] cis-element decreased, and after adding the detection substrate, the detected light signal decreased accordingly, so as to detect the inhibitory effect of the compound.
To a 96-well cell culture plate, add 100 uL of the compound with a maximum concentration of 20 uM to each well, and make a 3-fold serial dilution of the compound concentration. Then 10,000 colo205 cells stably transfected with the reporter gene and 100 uL medium were inoculated into each well, and corresponding positive and negative control wells were made at the same time. Put the cells in a 5% CO2 incubator and incubate at 37° C. for 4 hours. After 4 hours, remove the culture medium, add 100 uL of reagent (Promega) containing the corresponding firefly luciferase substrate to each well, and measure the activity of luciferase reporter gene. Luminescence intensity was read with SpectraMax in full wavelength mode. […]
(A reporter such as luciferase makes a cellular process visible.)

Structures are written as SMILES.

The IC50 is the concentration at which inhibition is half-maximal. With `COCC[C@@H]1C(=O)N2CCCc3nc(NCc4ccc(Oc5ccc(C(F)(F)F)nc5)nc4)nc(c32)N1C` [215 (W391)], the 50% inhibitory concentration (IC50) is 0.053 µM in the assay on Colo205 and more than 10 µM in the assay on RKO.
For `CN1c2nc(NCc3ccc(Oc4cnc(C(F)(F)F)nc4)nc3)nc3c2N(CCC3)C(=O)[C@]12CCOC2` [225 (W407)], the IC50 in the assay with Colo205 is 0.057 µM; with RKO it was more than 10 µM.
`CN1c2nc(NCc3ccc(Oc4ccc(C(F)(F)F)nc4)nc3)nc3c2N(CCC3)C(=O)C12CCOCC2` [216 (W352)]: the IC50 is 0.039 µM in the assay on Colo205 and more than 10 µM in the assay with RKO.
Consider `CN1c2nc(NCc3ccc(Oc4cc(C(F)(F)F)nn4C)nc3)nc3c2N(CCC3)C(=O)[C@@H]1CO` [222 (W402)], for which the IC50 was 0.061 µM in the assay on Colo205 and more than 10 µM in the assay with RKO.
`C[C@H]1Cn2cc(F)c3nc(NCc4cnn(Cc5ccc(F)cc5)c4)nc(c32)N1C` [64 (W23)] returned an IC50 in assay [1] of 0.041 µM.
As for `CN1c2nc(NCc3ccc(Oc4cnc(C(F)(F)F)nc4)nc3)nc3c2N(CCC3)C(=O)[C@]1(C)CO` [140 (W376), (S)-5-(hydroxymethyl)-4,5-dimethyl-2-(((6-((2-(trifluoromethyl)pyrimidin-5-yl)oxo)pyridine-3-Base)methyl)amino)-4,5,9,10-tetrahydro-6H,8H-pyrido[3,2,1-de]pteridin-6-one], the IC50 in the assay with Colo205 was 0.049 µM; in the assay on RKO, more than 10 µM.
In the case of `[2H]C([2H])([2H])OC[C@H]1C(=O)N2CCCc3nc(NCc4ccc(Oc5cnc(C(F)(F)F)nc5)nc4)nc(c32)N1C([2H])([2H])[2H]` [132 (W383), (S)-5-((methoxy-d3)methyl)-4-(methyl-d3)-2-(((6-((2-(trifluoromethyl)pyrimidin-5-yl)oxo)pyridin-3-yl)methyl)amino)-4,5,9,10-tetrahydro-6H,8H-pyrido[3,2,1-de]pteridin-6-one], the IC50 in assay [1] was 0.042 µM; in the assay on Colo205, 0.025 µM; with RKO, more than 10 µM.
Turning to `CN1c2nc(NCc3ccc(Oc4ccc(C(F)(F)F)nc4)nc3)nc3c2N(CCC3)C(=O)[C@]1(C)CO` [133 (W377), (S)-5-(hydroxymethyl)-4,5-dimethyl-2-(((6-((6-(trifluoromethyl)pyridin-3-yl)oxo)pyridine-3-yl)methyl)amino)-4,5,9,10-tetrahydro-6H,8H-pyrido[3,2,1-de]pteridin-6-one], the IC50 in assay [1] was 0.058 µM; in the assay on Colo205 it was 0.035 µM; in the assay on RKO, more than 10 µM.
As to `C[C@H](O)[C@@]1(C)C(=O)N2CCCc3nc(NCc4ccc(Oc5ccc(C(F)(F)F)nc5)nc4)nc(c32)N1C` [239 (W427)], the IC50 was 0.036 µM in assay [1], 0.0283 µM in the assay on Colo205 and more than 10 µM in the assay with RKO.
On to `[2H]C([2H])([2H])N1c2nc(NCc3ccc(Oc4ccc(C(F)(F)F)nc4)nc3)nc3c2N(CCC3)C(=O)[C@]1(C)CO` [220 (W398)], for which the half-inhibitory concentration (IC50) was 0.048 µM in the assay on Colo205 and more than 10 µM in the assay on RKO.
`C[C@H]1C(=O)N2CCCc3nc(NCc4cnn(Cc5ccc(C(F)(F)F)nc5)c4)nc(c32)N1C` [Example 1, (S)-4,5-dimethyl-2-(((1-((6-(trifluoromethyl)pyridine-3-yl)methyl)-1H-pyrazol-4-yl)methyl)amino)-4,5,9,10-tetrahydro-6H,8H-pyrido[3,2,1-de]pteridin-6-one]: the IC50 in assay [1] was 0.083 µM.
As for `CCn1nc(C(F)(F)F)c(C2CC2)c1Oc1ccc(CNc2nc3c4c(n2)N(C)[C@@](C)(CO)C(=O)N4CCC3)cn1` [233 (W419)], the IC50 in the assay with Colo205 was 0.052 µM; in the assay on RKO, more than 10 µM.
The like results for `CN1c2nc(NCc3ccc(Oc4cnc(C(F)(F)F)nc4)nc3)nc3c2N(CCC3)C(=O)C12CCOCC2` [217 (W359)] were, in that order, 0.057 µM and more than 10 µM.
`CN1CC2(CC2)Cn2ccc3nc(NCc4cnn(Cc5ccc(C(F)(F)F)nc5)c4)nc1c32` [76 (W83)] had an IC50 in assay [1] of 0.067 µM.
In the case of `COCC[C@H]1C(=O)N2CCCc3nc(NCc4ccc(Oc5cnc(C(F)(F)F)nc5)nc4)nc(c32)N1C` [211 (W390)], the IC50 was 0.043 µM in assay [1], 0.023 µM with Colo205 and more than 10 µM in the assay with RKO.
Consider `CN1c2nc(NCc3ccc(Oc4ccc(C(F)(F)F)nc4)nc3)nc3c2N(CCC3)C(=O)[C@]12CCOC2` [209 (W405)], for which the half-inhibitory concentration (IC50) is 0.03 µM with Colo205 and more than 10 µM in the assay with RKO.
As to `CN1c2nc(NCc3ccc(Oc4cnc(C(F)(F)F)nc4)nc3)nc3c2N(CCC3)C(=O)[C@@H]1C1CCOCC1` [218 (W339)], the results for the IC50 (in assay [1]; in the assay with Colo205; in the assay on RKO) were 0.03 µM, 0.017 µM and more than 10 µM, respectively.
With `[2H]C([2H])([2H])N1c2nc(NCc3ccc(Oc4cnc(C(F)(F)F)nc4)nc3)nc3c2N(CCC3)C(=O)[C@]1(C)CO` [221 (W399)], the IC50 is 0.043 µM with Colo205 and more than 10 µM in the assay with RKO.
As for `CN1c2nc(NCc3ccc(Oc4cnc(C(F)(F)F)nc4)nc3)nc3c2N(CCC3)C(=O)C12CC2` [175 (W327)], half-maximal inhibition in assay [1] (IC50) was put at 0.028 µM.
With `CN1c2nc(NCc3ccc(Oc4ccc(C(F)(F)F)nc4)nc3)nc3c2N(CCC3)C(=O)C12CCOC2` (stereo not drawn) [207 (W357)], the IC50 in the assay on Colo205 was 0.084 µM; in the assay on RKO, more than 10 µM.
In assay [1], `[2H]C([2H])([2H])N1c2nc(NCc3cnn(Cc4ccc(C(F)(F)F)nc4)c3)nc3ccn(c23)C[C@@H]1C` [73 (W85)] came in with an IC50 of 0.024 µM.
In turn, `C[C@H]1Cn2ccc3nc(NCc4cnn(CCc5ccc(F)cc5)c4)nc(c32)N1C` [66 (W43)] had an IC50 in assay [1] of 0.011 µM.
As to `CN1c2nc(NCc3ccc(Oc4cnc(C(F)(F)F)nc4)nc3)nc3c2N(CCC3)C(=O)[C@@]12CCOC2` [224 (W406)], the figures for the IC50 in the assay on Colo205 and with RKO were 0.063 µM and more than 10 µM, respectively.
In the case of `FC1(F)C[C@H]2Cn3ccc4nc(NCc5cnn(Cc6ccc(C(F)(F)F)nc6)c5)nc(c43)N2C1` [69 (W50)], the midpoint of inhibition in assay [1], the IC50, lay at 0.021 µM.
For the compound `COCCC1C(=O)N2CCCc3nc(NCc4ccc(Oc5cnc(C(F)(F)F)nc5)nc4)nc(c32)N1C` (stereo not drawn) [210 (W371)], the values for the IC50 in the assay with Colo205 and with RKO were 0.06 µM and more than 10 µM, respectively.
`C[C@H]1CN(C)c2nc(NCc3ccc(CCC(F)(F)F)nc3)nc3ccn1c23` [Example 20, (S)-4,6-dimethyl-N-((6-(3,3,3-trifluoropropyl)pyridin-3-yl)methyl)-5,6-dihydro-4H-pyrrole And[3,2,1-de]pteridin-2-amine] showed an IC50 in assay [1] of 0.093 µM.
For the compound `C[C@H]1C(=O)N2CCCc3nc(NCc4ccc(Oc5ccc(C6CC6)nc5)nc4)nc(c32)N1C` [137 (W335), (S)-2-(((6-((6-cyclopropylpyridin-3-yl)oxo)pyridin-3-yl)methyl)amino)-4,5-dimethyl-4,5,9,10-tetrahydro-6H,8H-pyrido[3,2,1-de]pteridin-6-one], the IC50 in the assay on Colo205 is 0.138 µM; in the assay on RKO it was more than 10 µM.
